# Test results reported in patent US11712466B2, “Vaccine composition” (TOHOKU UNIVERSITY, priority 2017, dated 2023).
# “Also recorded” adds a separate entry of the source. Ends that are not written are not given here.
# Experiments:
# mZeb1 = experiment: Gene expression in excised tumor tissue by real-time PCR, mZeb1; assay type: in vivo, mouse; details: tumor excised two weeks after implantation
# Experimental: The mouse implanted with the tumor cells in Example 2 was sacrificed two weeks after implantation of the tumor cells, and a tumor was excised from the right axillary subcutaneous region. By using RNeasy Plus Kit (Qiagen, Inc.), extraction of the total RNA from the excised tumor and purification thereof were carried out. By using the obtained total RNA as a template, cDNA was synthesized by reverse transcription reaction. The cDNA was analyzed by performing real-time PCR using a mixed solution of the obtained cDNA and SYBR green (TAKARA BIO, Inc.).
# [1] = tested on: RH30 rhabdomyosarcoma cells; experiment: In vitro wound migration method with serum of immunized mouse (RH30); assay type: cell-based, human; details: 1% serum of mouse with increased anti-VASH2 titer after vaccine; 24 and 48 hours
# Experimental: By using the serum derived from a mouse in which an increase in the antibody titer against the recombinant human VASH2 protein by administration of the MTG peptide vaccine was confirmed, the effect on the migration ability of various types of cancer cells was examined by an in vitro wound migration method. Mouse-derived Lewis lung cancer cells and human-derived RH30 rhabdomyosarcoma cells were added to a 6-well plate at 1.0×10^6 cells each. After 24 hours, a formed cell monolayer was wounded and linearly exfoliated. After the exfoliation, the medium was replaced with fresh 0.5% FBS+RPMI medium supplemented with 1% mouse serum. At 24 hours and 48 hours after the medium replacement, the image of the cell monolayer was captured using an IX71 inverted microscope (manufactured by Olympus Corporation), and a cell migration distance of each time zone was analyzed using ImageJ software. The analysis was carried out according to the following formula. Cell migration distance (%)={(A−B)/A}×100
# A: Width of initial wound, B: Width of wound after 24 hours or 48 hours
# [2] = tested on: recombinant human VASH2 protein; experiment: Antibody titer in blood of immunized mice by ELISA against recombinant VASH2 protein; assay type: in vivo, mouse; details: for production of an antibody specific to VASH2: Example 5: C57BL/6J mice
# Text: C57BL/6J male mice aged 8 weeks were purchased from Charles River Laboratories Japan, Inc. After the delivery, the mice were reared in an environment where the room temperature and the light and dark cycles were maintained, and were provided with feed and water ad libitum. As a candidate sequence leading to activation of helper T cells by MHC class II, two peptide sequences: MTGSAADTHR (SEQ ID NO: 4; hereinafter, a peptide composed of the amino acid sequence is referred to as “MTG peptide”) and RRRQASPPRR (SEQ ID NO: 5; hereinafter, a peptide composed of the amino acid sequence is referred to as “RRR peptide”), each of which is not common to VASH1 in the VASH2 sequence were selected (FIG. 1). With respect to these peptides, peptide vaccines using KLH as a carrier were constructed. Note that for the conjugation of each peptide with KLH, a glutaraldehyde method was used. When the amount of the peptide introduced into KLH was measured for each of the obtained peptide vaccines, the amount of MTG was 66 to 70 nmol/mg of the conjugate, and the amount of RRR was 62 to 76 nmol/mg of the conjugate. Subsequently, 5 μg of KLH (control) and 20 μg of each of the KLH-antigen complexes were prepared with physiological saline so that the total amount was 50 μL, respectively, whereby KLH-mixed solutions were obtained. To each of the KLH-mixed solutions (50 μL), an equal amount of complete Freund's adjuvant was added. The obtained mixture was subcutaneously administered to the mice, whereby initial immunization was carried out. After 2 weeks from the administration, booster immunization was carried out by subcutaneously administering a mixture of each of the KLH-mixed solutions (50 μL) and an equal amount of incomplete Freund's adjuvant to the mice. Further, after 2 weeks from the booster immunization (after a total of 4 weeks), an increase in the antibody titer in the blood of each of the immunized mice was verified by ELISA.
# The measurement of the antibody titer by ELISA was carried out as follows. After 2 weeks from the booster immunization (after a total of 4 weeks), the blood was collected from the facial vein of each of the immunized mice, and the serum separated from the blood was subjected to ELISA. By using 50 mM carbonate buffer, peptide-conjugated BSA was prepared at 10 μg/mL, and further a recombinant VASH2 protein was prepared at 1 μg/mL, each of which was added at 50 μL/well, and the resultant was left to stand overnight at 4° C. After the solution in each well was removed, 5% skim milk was added at 150 μL/well. After the resultant was left to stand at room temperature for 2 hours, the solution was removed, and subsequently, a serum sample diluted by 20 to 62500 times with 5% skim milk was added at 50 μL/well, and the resultant was left to stand overnight at 4° C. Subsequently, washing was carried out with PBS (200 μL/well×6 times), and thereafter, a secondary antibody (HRP-conjugated anti-Mouse IgG) diluted by 1000 times with 5% skim milk was added at 50 μL/well. After the resultant was left to stand at room temperature for 3 hours, washing was carried out with PBS (200 μL/well×3 times). Thereafter, tetramethylbenzidine (TMB) was added at 50 μL/well, and the resultant was left to stand at room temperature under light shielding. After 30 minutes, the reaction was stopped by adding 0.5 N H2SO4 at 50 μL/well, and an absorbance (450 nm) was measured using a microplate reader.
# [3] = tested on: pancreatic cancer cell line (K5); experiment: Metastasis inhibitory effect in vivo, K5 injected through tail vein, lung metastatic lesion; parameters: species or system mouse; details: 100 μg, Alhydrogel, C57BL/6J mice, day 21 after K5 injection; KLH control 2 out of 5 mice with metastasis
# Experimental: 20 μg or 100 μg of KLH (control) and 20 μg or 100 μg of the MTG peptide vaccine were prepared with physiological saline so that the total amount was 100 μL, respectively, whereby KLH-mixed solutions were obtained. To each of the KLH-mixed solutions (100 μL), an equal amount of Alhydrogel (registered trademark) was added. The obtained mixture (200 μL) was intradermally (ID) administered to C57BL/6J male mice (n=5) aged 8 weeks, whereby initial immunization was carried out (0 day). Incidentally, in the intradermal administration, 200 μL was administered at a dose of 100 μL each to two sites. After 2 weeks from the administration (14 days), booster immunization was carried out by subcutaneously administering a mixture of each of the KLH-mixed solutions (100 μL) and an equal amount of Alhydrogel (registered trademark) to the mice. […] Further, at that time point, the blood was collected from each mouse, and the antibody titer of an antibody specific to the antigen peptide or the recombinant human VASH2 protein was measured by ELISA. The mice were sacrificed on day 21 after the injection of K5 (49 days), and the lung metastatic lesion was analyzed (FIG. 10). […]
substance,measurement,setting,value
MTG peptide vaccine: MTG peptide MTGSAADTHR (SEQ ID NO: 4) conjugated with KLH as carrier by a glutaraldehyde method (also: conjugated with KLH by glutaraldehyde),expression of mZeb1 (epithelial-mesenchymal transition marker) in tumor tissue,mZeb1,dose-dependent expression inhibitory effect; also recorded: significantly inhibited depending on the dose
same,"cell migration, human-derived RH30 rhabdomyosarcoma cells",[1],migration inhibitory effect
same,antibody titer against the recombinant human VASH2 protein,"[2]; Example 1: C57BL/6J mice, KLH-antigen complex s.c., Freund's adjuvant, serum 2 weeks after booster (total 4 weeks)",a significant increase in the antibody titer was confirmed; also recorded: a significant increase in the antibody titer was observed
same,production of an antibody specific to VASH2,"[2]; 20 or 100 μg, Alhydrogel adjuvant, day 28",promoted the production of an antibody specific to VASH2
same,production of an antibody specific to VASH2,"[2]; 20 or 100 μg, Freund's adjuvant, day 28",promoted the production of an antibody specific to VASH2
same,production of an antibody specific to the VASH2 recombinant protein,"[2]; Example 6: C57BL/6J mice, 20 or 100 μg, Alhydrogel, day 28",promotes the production of an antibody
same,induced antibody binding to the VASH2 recombinant protein,"[2]; Example 8: C57BL/6Jx129SVJ mice, 100 μg, Alhydrogel, day 28",induced an antibody that binds to both
same,lung metastasis of the pancreatic cancer cells K5,[3],not confirmed in all four individuals
